# The OPERA property sets (Mansouri et al. 2018)
# Details: for log10 BCF / log10 biotransformation half-life (days): fish
SMILES,boiling point,melting point,other results
Cc1ccc([N+](=O)[O-])cc1O,–,–,ready biodegradability: not readily biodegradable; log10 BCF: 0.85; log10 biotransformation half-life (days): -1.24
CC(C)=CC=C(C)C,134 °C,14 °C,log10 BCF: 2.32; log10 biotransformation half-life (days): 0.49
O=C(O)[C@H]1CC=CCC1,234 °C,17 °C,–
CC(=O)c1ccc(Cl)s1,–,52 °C,–
CCC1C=CCC1 (stereo unspecified),97.8 °C,–,–
Nc1cc(Cl)ccc1[N+](=O)[O-],–,128 °C,–
CCCCCCCCCCC1CCCCC1,299 °C,-1.7 °C,log10 vapour pressure (mmHg): -2.99
C=C(C)C(=O)OCCN(CC)CC,–,–,ready biodegradability: readily biodegradable
COc1cc2ccc(=O)oc2cc1O,–,204 °C,–
Clc1ccc(Oc2ccccc2)c(Cl)c1,–,–,log10 vapour pressure (mmHg): -3.04
O=S(O)c1ccc(Cl)cc1,–,99 °C,–
COC(=O)/C=C\C(=O)OC,198 °C,–,log10 vapour pressure (mmHg): -0.523
CNCCCN,–,–,ready biodegradability: readily biodegradable
CCCCCCCCCCCCCCCCCCO,–,59.5 °C,log10 Koa: 10.9; log10 vapour pressure (mmHg): -5.57; ready biodegradability: readily biodegradable
Clc1cccc(Cl)c1N=C1NCCN1,–,130 °C,–
OCC(O)COc1ccc(Cl)cc1 (stereo unspecified),–,78 °C,–
Clc1cc2oc3c(Cl)c(Cl)c(Cl)c(Cl)c3c2cc1Cl,–,–,log10 Koa: 10.8; log10 BCF: 3.9
Oc1c(Cl)cc(Cl)c(Cl)c1Cc1c(O)c(Cl)cc(Cl)c1Cl,479 °C,166 °C,ready biodegradability: not readily biodegradable; log10 BCF: 2.07
CCCCCCCCCCCC[N+](CCO)(CCO)Cc1ccccc1.[Cl-],–,108 °C,–
Fc1ccc(Br)cc1,152 °C,-17.4 °C,–
Clc1nc(Cl)c(Cl)c(Cl)n1,–,69 °C,–
C=C(C)c1ccc(C(C)(C)N=C=O)cc1,–,–,log10 vapour pressure (mmHg): -2.33

SMILES,boiling point,melting point,other results
FC(Cl)Br (stereo unspecified),36 °C,-115 °C,–
O=C1c2c(O)ccc(Nc3ccccc3)c2C(=O)c2c([N+](=O)[O-])ccc(O)c21,–,–,ready biodegradability: not readily biodegradable
C=C(C)C(=O)OCCCCCCCCCCCCCCCCCC,–,–,ready biodegradability: readily biodegradable
FC(Br)C(F)(F)Br (stereo unspecified),76 °C,–,–
CCCCCCCCCCCCCCCCOC(=O)CCCCCCCCCCCCCCC,–,54 °C,–
CCCC(=O)OCc1ccco1,212 °C,–,–
OCCNCCO,269 °C,28 °C,log10 Koc (L/kg): 0.6; log10 vapour pressure (mmHg): -3.55; ready biodegradability: readily biodegradable
FC(F)(F)C(Cl)=C(Cl)Cl,88.1 °C,–,–
O=S(=O)(Cl)c1ccc2ccccc2c1,–,81 °C,–
O=c1oc2ccccc2c(O)c1C1CCCc2ccccc21 (stereo unspecified),–,172 °C,log10 vapour pressure (mmHg): -10.2
CC(=O)OC(OC(C)=O)c1ccco1,220 °C,53.3 °C,–
Clc1cccc(Cl)c1Br,242 °C,65 °C,–
Cn1c([N+](=O)[O-])cnc1/C=C/c1ccnc(N)n1,–,234 °C,–
N#CCc1ccc(Br)cc1,–,48 °C,–
CC[C@H](C)C(=O)O[C@H]1CCC=C2C=C[C@H](C)[C@H](CC[C@@H]3C[C@@H](O)CC(=O)O3)[C@H]21,–,152 °C,–
CCOC(C)OCC,102 °C,-100 °C,log10 vapour pressure (mmHg): 1.44
ClC1=C(Cl)C2(Cl)C3C(Cl)OC(Cl)C3C1(Cl)C2(Cl)Cl (stereo unspecified),–,121 °C,log10 vapour pressure (mmHg): -5.53
Cc1ccc(F)cc1[N+](=O)[O-],213 °C,27 °C,–
CSC(C)C,84.8 °C,-102 °C,log10 vapour pressure (mmHg): 1.9
CC[Si](CC)(CC)O[Si](CC)(CC)CC,233 °C,–,–
CC(C)=CC1C(C(=O)OCN2C(=O)C3=C(CCCC3)C2=O)C1(C)C (stereo unspecified),–,69 °C,ready biodegradability: not readily biodegradable
ClC(Cl)C(Cl)Cl,146 °C,-43.8 °C,log10 Henry constant (atm·m³/mol): -3.44; log10 Koc (L/kg): 1.9; log10 vapour pressure (mmHg): 0.665; ready biodegradability: not readily biodegradable; log10 BCF: 1.11; log10 biotransformation half-life (days): -0.67

SMILES,boiling point,melting point,other results
CC(=O)Nc1ccccc1C(=O)O,–,186 °C,–
c1ccc2c(c1)CCc1ccccc1N2C1CN2CCC1CC2 (stereo unspecified),–,150 °C,–
Cl[Si](Cl)(Cl)CCc1ccccc1,242 °C,–,–
Clc1cc(Cl)c2ccccc2n1,281 °C,67.5 °C,–
CCCCCCOC(=O)CC,190 °C,-57.5 °C,–
CC(=O)NC(=O)NC(C)=O,–,154 °C,–
c1ccc(-c2oc(-c3ccccc3)c(-c3ccccc3)c2-c2ccccc2)cc1,–,175 °C,–
CCN(C(C)=O)C(C)=O,197 °C,–,–
CCC(Cl)CCl (stereo unspecified),124 °C,–,log10 vapour pressure (mmHg): 1.32
O=[N+]([O-])c1ccc(N=Nc2ccc(N(CCO)CCO)cc2Cl)cc1,–,190 °C,–
CCCCOC(=O)CC#N,231 °C,–,–
c1ccc(C2(c3ccccc3)CC2C2=NCCN2)cc1 (stereo unspecified),–,104 °C,–
O=C(O)c1ccc2ccccc2c1O,–,195 °C,–
Cn1ccc(=O)[nH]c1=O,–,237 °C,log10 vapour pressure (mmHg): -3.29
Cc1ccc2cc3ccc4ccccc4c3cc2c1,–,183 °C,–
C=CCl,-13.3 °C,-154 °C,log10 Henry constant (atm·m³/mol): -1.56; log10 vapour pressure (mmHg): 3.47
Cc1cc(C(C#N)c2ccc(Cl)cc2)c(Cl)cc1NC(=O)c1cc(I)cc(I)c1O (stereo unspecified),–,218 °C,–
O=C1CCC(=O)CC1,–,78 °C,–
FC(F)(I)C(F)(F)I,112 °C,–,–
O=CN(c1ccccc1)c1ccccc1,338 °C,73.5 °C,–
